Activity calls are given as the source filed them. The calls are words filed in the database; no cut-off is given here.
Tests used:
Aspergillus fumigatus [1] = assay: Antifungal activity against Aspergillus fumigatus isolate AF 293 infected in ICR mouse assessed as pulmonary fungal burden at 40 mg/kg, po QD; assay type: functional
Aspergillus fumigatus [2] = assay: Antifungal activity against Aspergillus fumigatus isolate CEA 10 infected in ICR mouse assessed as pulmonary fungal burden at 40 mg/kg, po QD; assay type: functional
Aspergillus fumigatus [3] = assay: Antifungal activity against Aspergillus fumigatus isolate AF 293 infected in ICR mouse assessed survival of the mouse at 40 mg/kg, po QD; assay type: functional, organism-based; parameters: dose 40 mg/kg
Aspergillus fumigatus [4] = assay: Antifungal activity against Aspergillus fumigatus isolate CEA 10 infected in ICR mouse assessed as decrease in (1-3)-beta-D-glucan concentration in serum at 40 mg/kg, po QD (RVb= 707 pg/ml); assay type: functional, organism-based; parameters: dose 40 mg/kg
Aspergillus fumigatus [5] = assay: Antifungal activity against Aspergillus fumigatus isolate AF 293 infected in ICR mouse assessed as decrease in (1-3)-beta-D-glucan concentration in serum at 40 mg/kg, po QD (RVb= 758 pg/ml); assay type: functional, organism-based; parameters: dose 40 mg/kg
Aspergillus fumigatus [6] = assay: Antifungal activity against Aspergillus fumigatus isolate CEA 10 infected in ICR mouse assessed survival of the mouse at 40 mg/kg, po QD; assay type: functional, organism-based; parameters: dose 40 mg/kg

CC[C@@H]([C@H](C)O)n1ncn(-c2ccc(N3CCN(c4ccc(OC[C@@H]5CO[C@@](Cn6cncn6)(c6ccc(F)cc6F)C5)cc4)CC3)cc2)c1=O [POSACONAZOLE]
fold change (FC) (Aspergillus fumigatus [1]): 3.6
fold change (FC) (Aspergillus fumigatus [2]): 7.3
Activity (Aspergillus fumigatus [3]): Active
Activity (Aspergillus fumigatus [4]): Active
Activity (Aspergillus fumigatus [5]): Active
Activity (Aspergillus fumigatus [6]): Active

Reference: ChEMBL document CHEMBL1255257, “Assessment of serum (1->3)-beta-D-glucan concentration as a measure of disease burden in a murine model of invasive pulmonary aspergillosis” (2008)
